Target: T1, MAGL (Homo sapiens, UniProt Q99685)
T1 sequence (Q99685 1-303): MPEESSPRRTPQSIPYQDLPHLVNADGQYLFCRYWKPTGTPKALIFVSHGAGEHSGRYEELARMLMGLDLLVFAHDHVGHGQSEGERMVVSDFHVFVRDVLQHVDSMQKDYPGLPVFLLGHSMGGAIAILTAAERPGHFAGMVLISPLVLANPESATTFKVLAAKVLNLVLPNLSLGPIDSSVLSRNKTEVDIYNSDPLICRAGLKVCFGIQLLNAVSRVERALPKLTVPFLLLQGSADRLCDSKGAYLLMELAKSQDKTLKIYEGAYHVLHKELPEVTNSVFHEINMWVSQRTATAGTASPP
Assay: 2-AG assay: MAGL inhibitory activity by hydrolysis of 2-arachidonoylglycerol to arachidonic acid, followed by mass spectrometry
Format: biochemical
Conditions: 15 min preincubation, 30 min reaction at RT, 8 μM 2-arachidonoylglycerol

| SMILES | IC50 |
| --- | --- |
| O=C1COCC2(CN(C(=O)N3CC4(CC(Cc5nc(C(F)(F)F)ns5)C4)C3)C2)N1 [Example 363, 2-[6-[[3-(trifluoromethyl)-1,2,4-thiadiazol-5-yl]methyl]-2-azaspiro[3.3]heptane-2-carbonyl]-8-oxa-2,5-diazaspiro[3.5]nonan-6-one] | 54.9 nM |
| N#Cc1cc(C(F)(F)F)ncc1C[C@H]1CCC2(C1)CN(C(=O)N1CC3(COC(=O)N3)C1)C2 [Example 212, 5-[[(6S)-2-(6-oxo-7-oxa-2,5-diazaspiro[3.4]octane-2-carbonyl)-2-azaspiro[3.4]octan-6-yl]methyl]-2-(trifluoromethyl)pyridine-4-carbonitrile] | 0.46 nM |
| O=C1CCC2(CN(C(=O)N3CC4(CC(Cc5ccc(C(F)(F)F)nc5)C4)C3)C2)N1 [Example 3, 2-[6-[[6-(trifluoromethyl)-3-pyridyl]methyl]-2-azaspiro[3.3]heptane-2-carbonyl]-2,5-diazaspiro[3.4]octan-6-one] | 2.85 nM |
| O=C1CCC2(CN(C(=O)N3CC4(CC(NS(=O)(=O)c5cccc(C(F)(F)F)c5)C4)C3)C2)N1 [Example 55, N-[2-(6-keto-2,5-diazaspiro[3.4]octane-2-carbonyl)-2-azaspiro[3.3]heptan-6-yl]-3-(trifluoromethyl)benzen esulfonamide] | 9.81 nM |
| O=C1NC2(CO1)CN(C(=O)N1CC3(CC(Cc4ccc(C(F)(F)F)nn4)C3)C1)C2 [Example 36, 2-[6-[[6-(trifluoromethyl)pyrida-zin-3-yl]methyl]-2-azaspiro[3.3]heptane-2-carbonyl]-7-oxa-2,5-diazaspiro[3.4]octan-6-one] | 1.43 nM |
| N=S(=O)(c1ccc(CC2CC3(C2)CN(C(=O)N2CC4(CCC(=O)N4)C2)C3)cc1)C(F)(F)F (stereo not shown) [Example 2, 2-[6-[4-(trifluoromethylsulfoni-midoyl)benzyl]-2-azaspiro[3.3]heptane-2-carbonyl]-2,5-diazaspiro[3.4]octan-6-one] | 2.15 nM |
| O=C1CCCC2(CN(C(=O)N3CC4(CC(Cc5ccc(S(=O)(=O)C(F)(F)F)cn5)C4)C3)C2)N1 [Example 263, 2-[6-[[5-(trifluoromethylsulfonyl)-2-pyridyl]methyl]-2-azaspiro[3.3]heptane-2-carbonyl]-2,5-diazaspiro[3.5]nonan-6-one] | 183 nM |
| O=C1NC2(CO1)CN(C(=O)N1CC3(C1)CN(c1ncc(C(F)(F)F)cn1)C3)C2 [Example 207, 2-[6-[5-(trifluoromethyl)pyrimi-din-2-yl]-2,6-diazaspiro[3.3]heptane-2-carbonyl]-7-oxa-2,5-diazaspiro[3.4]octan-6-one] | 414 nM |
| O=C1CCC2(CN(C(=O)N3CC4(CC[C@@H](Cc5cccc(S(=O)(=O)C(F)(F)F)c5)C4)C3)C2)N1 [Example 224, 2-[(6S)-6-(3-triflylbenzyl)-2-azaspiro[3.4]octane-2-carbonyl]-2,5-diazaspiro[3.4]octan-6-one] | 0.23 nM |
| O=C1CCC2(CN(C(=O)N3CC4(CC(n5cnc(C6CC6)n5)C4)C3)C2)N1 [Example 131, 2-[6-(3-cyclopropyl-1,2,4-triazol-1-yl)-2-azaspiro[3.3]heptane-2-carbonyl]-2,5-diazaspiro[3.4]octan-6-one] | 209 nM |
| O=C1NC2(CO1)CN(C(=O)N1CC3(CC(c4ccc(F)cc4)C3)C1)C2 [Example 115, 2-[6-(4-fluorophenyl)-2-azaspiro[3.3]heptane-2-carbonyl]-7-oxa-2,5-diazaspiro[3.4]octan-6-one] | 1.02 nM |
| O=C1CCC2(CN(C(=O)N3CC4(CC(Cc5ccc(S(=O)(=O)C(F)(F)F)cc5)C4)C3)C2)N1 [Example 295, 2-[6-[[4-(trifluoromethylsulfonyl)phenyl]methy]-2-azaspiro[3.3]heptane-2-carbonyl]-2,5-diazaspiro[3.4]octan-6-one] | 0.07 nM |
| O=C1CCC2(CN(C(=O)N3CC4(CC(Cn5cc(C6(C(F)(F)F)CC6)cn5)C4)C3)C2)N1 [Example 311, 2-[6-[[4-[1-(trifluoromethyl)cyclopro-pyl]pyrazol-1-yl]methyl]-2-azaspiro[3.3]heptane-2-carbonyl]-2,5-diazaspiro[3.4]octan-6-one] | 4.08 nM |
| CS(=O)(=O)c1cc(F)ccc1CC1CC2(C1)CN(C(=O)N1CC3(COC(=O)N3)C1)C2 [Example 15, 2-[6-(4-fluoro-2-mesyl-benzyl)-2-azaspiro[3.3]heptane-2-carbonyl]-7-oxa-2,5-diazaspiro[3.4]octan-6-one] | 0.3 nM |
| O=C1COCC2(CN(C(=O)N3CC4(CCN(Cc5cccc(S(=O)(=O)C(F)(F)F)c5)C4)C3)C2)N1 [Example 260, 2-[7-[[3-(trifluoromethylsulfonyl)phenyl]methyl]-2,7-diazaspiro[3.4]octane-2-carbonyl]-8-oxa-2,5-diazaspiro[3.5]nonan-6-one] | 80.7 nM |
| O=C1NC2(CO1)CN(C(=O)N1CC3(CC(N4CC(CC(F)(F)F)C4)C3)C1)C2 [Example 81, 2-[6-[3-(2,2,2-trifluoroethyl)azetidin-1-y1]-2-azaspiro[3.3]heptane-2-carbonyl]-7-oxa-2,5-diazaspiro[3.4]octan-6-one] | 7.62 nM |
| O=C1CCC2(CN(C(=O)N3CC4(CC(Cn5cc(C(F)(F)F)ccc5=O)C4)C3)C2)N1 [Example 259, 2-[6-[[2-oxo-5-(trifluoromethyl)-1-pyridyl]methyl]-2-azaspiro[3.3]heptane-2-carbonyl]-2,5-diazaspiro[3.4]octan-6-one] | 25.9 nM |
| Cn1ncc(C(F)(F)F)c1CC1CC2(C1)CN(C(=O)N1CC3(COCC(=O)N3)C1)C2 [Example 366, 2-[6-[[2-methyl-4-(trifluoromethyl)pyrazol-3-yl]methyl]-2-azaspiro[3.3]heptane-2-carbonyl]-8-oxa-2,5-diazaspiro[3.5]nonan-6-one] | 22.4 nM |

The remaining molecules from weak to strong by IC50, led by results:

| IC50 | SMILES |
| --- | --- |
| 984 nM | O=C1COCC2(CN(C(=O)N3CC4(C3)CN(S(=O)(=O)c3cccc(OC(F)(F)F)c3)C4)C2)N1 [Example 86, 2-[2-[3-(trifluoromethoxy)phenyl]sulfony1-2,6-diazaspiro[3.3]heptane-6-carbonyl]-8-oxa-2,5-diazaspiro[3.5]nonan-6-one] |
| 265 nM | O=C1COCC2(CN(C(=O)N3CC4(CCN(Cc5ccc(S(=O)(=O)C(F)(F)F)cc5)C4)C3)C2)N1 [Example 233, 2-[7-[[4-(trifluoromethylsulfonyl)phenyl]methyl]-2,7-diazaspiro[3.4]octane-2-carbonyl]-8-oxa-2,5-diazaspiro[3.5]nonan-6-one] |
| 265 nM | O=C1CCC2(CN(C(=O)N3CC4(CCN(S(=O)(=O)C56CC(C(F)(F)F)(C5)C6)CC4)C3)C2)N1 [Example 205, 2-[7-[[3-(trifluoromethyl)-1-bicyclo[1.1.1]pentanyl]sulfonyl]-2,7-diazaspiro[3.5]nonane-2-carbonyl]-2,5-diazaspiro[3.4]octan-6-one] |
| 69.4 nM | N=[S@](=O)(c1cccc(CC2CC3(C2)CN(C(=O)N2CC4(CCCC(=O)N4)C2)C3)c1)C(F)(F)F [Example 293, 2-[6-[[3-(trifluoromethylsulfoni-midoyl)phenyl]methyl]-2-azaspiro[3.3]heptane-2-carbonyl]-2,5-diazaspiro[3.5]nonan-6-one] |
| 51 nM | O=C1COCC2(CN(C(=O)N3CC4(CC(Cc5cnc(C(F)(F)F)cn5)C4)C3)C2)N1 [Example 138, 2-[6-[[5-(trifluoromethyl)pyrazin-2-yl]methyl]-2-azaspiro[3.3]heptane-2-carbonyl]-8-oxa-2,5-diazaspiro[3.5]nonan-6-one] |
| 20.8 nM | O=C1COCC2(CN(C(=O)N3CC4(CC(Cc5cncc(C(F)(F)F)c5)C4)C3)C2)N1 [Example 173, 2-[6-[[5-(trifluoromethyl)-3-pyridyl]methyl]-2-azaspiro[3.3]heptane-2-carbonyl]-8-oxa-2,5-diazaspiro[3.5]nonan-6-one] |
| 18.4 nM | O=C1COCC2(CN(C(=O)N3CC4(CC(c5ccc(C(F)(F)F)cc5F)C4)C3)C2)N1 [Example 228] |
| 12.9 nM | O=C1NC2(CO1)CN(C(=O)N1CC3(CC(n4cnc(C5CC5)n4)C3)C1)C2 [Example 56, 2-[6-(3-cyclopropyl-1,2,4-triazol-1-yl)-2-azaspiro[3.3]heptane-2-carbonyl]-7-oxa-2,5-diazaspiro[3.4]octan-6-one] |
| 4.95 nM | N=[S@](=O)(c1ccc(CC2CC3(C2)CN(C(=O)N2CC4(COCC(=O)N4)C2)C3)cc1)C(F)(F)F [Example 285, 2-[6-[[4-(trifluoromethylsulfoni-midoyl)phenyl]methyl]-2-azaspiro[3.3]heptane-2-carbonyl]-8-oxa-2,5-diazaspiro[3.5]nonan-6-one] |
| 4.75 nM | O=C1NC2(CO1)CN(C(=O)N1CC3(CN(Cc4cc(F)cc(F)c4)C3)C1)C2 [Example 153, 2-[6-(3,5-difluorobenzyl)-2,6-diazaspiro[3.3]heptane-2-carbonyl]-7-oxa-2,5-diazaspiro[3.4]octan-6-one] |
| 0.62 nM | N=[S@](=O)(c1ccc(CC2CC3(C2)CN(C(=O)N2CC4(CCC(=O)N4)C2)C3)cc1)C(F)(F)F [Example 283, 2-[6-[[4-(trifluoromethylsulfoni-midoyl)phenyl]methyl]-2-azaspiro[3.3]heptane-2-carbonyl]-2,5-diazaspiro[3.4]octan-6-one] |
| 0.15 nM | N=[S@@](=O)(c1cccc(CC2CC3(C2)CN(C(=O)N2CC4(COC(=O)N4)C2)C3)c1)C(F)(F)F [Example 357, 2-[6-[3-(trifluoromethylsulfoni-midoyl)benzyl]-2-azaspiro[3.3]heptane-2-carbonyl]-7-oxa-2,5-diazaspiro[3.4]octan-6-one] |
| 0.06 nM | N#Cc1cc(C(F)(F)F)ccc1CC1CC2(C1)CN(C(=O)N1CC3(COC(=O)N3)C1)C2 [Example 242, 2-[[2-(6-oxo-7-oxa-2,5-diazaspiro[3.4]octane-2-carbonyl)-2-azaspiro[3.3]heptan-6-y]methyl]-5-(trifluoroemthyl)benzoni-trile] |

Reference: patent US20240383904A1, “HETEROCYCLIC COMPOUNDS” (Hoffmann-La Roche Inc., priority 2021, published 2024)
